# Experimental data: a melting point compilation (Tetko et al.; mined from patent text by program, amines drawn as free bases though some values may be those of a salt)
row,SMILES,melting point
1,CS(=O)(=O)c1cccc(-c2ccccc2[N+](=O)[O-])c1,124 to 125 °C
2,Cc1c(N2C[C@@H](N)[C@@H](C(C)C)C2)c(F)cc2c(=O)c(C(=O)O)cn([C@@H]3C[C@@H]3F)c12,124 to 127 °C
3,COc1cc(NOC(C)=O)c(Cl)c(OC)c1,117 to 118 °C
4,CCN(Cc1cc(Br)ccc1OCc1ccccc1)c1ccc(C(=O)NCc2cccnc2)cc1,119 to 121 °C
5,Cc1ccc(CN(Cc2ccc(C)cc2)c2nccc(-c3ccc(-c4ccc(N(c5ccccc5)c5ccccc5)cc4)cc3)n2)cc1,153 to 154 °C
6,Cc1ccc(C(=O)[C@@](O)(C(=O)O)[C@H](O)C(=O)O)cc1,126 to 130 °C
7,CCC(C)CNC(=O)c1ccc2cccc(Cc3ccc(C(=O)NS(=O)(=O)c4ccccc4C)cc3OC)c2c1 (stereo not given),204 °C
8,COc1ccc(C(=O)CC(=O)OC(C)(C)C)c(O)c1,40 to 42 °C
9,Oc1ncnc2[nH]c(-c3ccc4ccccc4c3)cc12,> 300 °C
10,O=c1c2ccccc2c(-c2ccccc2)cn1CC1CO1 (stereo not given),148 °C
11,c1ccc(-c2cccn3cnnc23)nc1,212 to 214 °C
12,COc1ccc(S(=O)(=O)CC(C)(C)CS(=O)(=O)c2ccc(OC)cc2)cc1,115 to 117 °C
13,O=C(NC[C@@H](C(=O)NO)N1CCCCC1)c1ccc(OCc2ccncc2)cc1,190 °C
14,Cc1cc2cc(CN3CCCC3)cnc2cc1NC(=O)c1ccc(-c2ccc(F)cc2)cc1,182 to 187 °C
15,O=C1c2ccccc2C(=O)N1CC(Br)(c1ccccc1)C(Br)Br (stereo not given),175 to 176 °C
16,N#CNc1nnc(-c2ccc3occ(-c4cccc(OC(F)(F)F)c4)c3c2)o1,237 to 238 °C
17,O=C(O)CNC(=O)c1c(O)n(C2CCCC2)c(=O)n(C2CCCCC2)c1=O,222 to 224 °C
18,CN[C@@H]1CCN(c2ccc3c(NC(=O)CC4CCCCC4)c(Cl)ccc3n2)C1,169 °C
19,CONC(=O)c1ccc(CC(C)(C)C=O)cc1,126 to 128 °C
20,O=C1CC(C(F)(F)F)Oc2cc(Cl)c(Cl)cc21 (stereo not given),94.5 to 97 °C
21,COCOCc1cccc2c(=O)c(C(=O)O)c(-c3ccccc3)oc12,142 to 143 °C
22,CN1CCN(c2cc(N)ccc2F)CC1,155 to 156 °C
23,COC(=O)Nc1cccc(CC(=O)NC(C)(C)C)c1,123 to 124 °C
24,CCNC(SC)=C(C#N)C(=O)OC,86 to 88 °C
25,CCN1C(=O)CCCc2cc(Nc3ncc(Cl)c(Nc4ccc(N5CCOCC5)cc4OC)n3)c(OC)cc21,212 to 214 °C

row,SMILES,melting point
1,CCOc1cc2c(O)c(C(=O)O)cnc2nc1C,259 to 261 °C
2,COC(=O)CNc1cccc(OCc2ccccc2)c1,92 to 94 °C
3,CCN(CC)C(=O)Cc1cc(C(C)(C)C)c(O)c(C(C)(C)C)c1,111 to 113 °C
4,CC(=O)C1CCC2C3CCC4CC(O)C(OCCC#N)CC4(C)C3C(=O)CC12C (stereo not given),194 to 196 °C
5,CCCC(CCC)n1ccc(=O)c2c(Cl)cc(C)nc21,82 to 85 °C
6,O=C(O)COc1cccc2cc(COCC(c3ccccc3)c3ccccc3)oc12,141 to 142 °C
7,c1cnc(Sc2cccc3cccnc23)nc1,165 to 168 °C
8,CS(=O)(=O)Nc1cc2occ(C#N)c(=O)c2cc1Oc1ccccc1,220 °C
9,O=C(Cc1ccccc1)c1ccc(C(=O)Cc2ccccc2)cc1,171 to 173 °C
10,O=C1N(Cc2ccccn2)c2ccc3ncsc3c2C12COc1cc3c(cc12)OCCO3 (stereo not given),156 to 158 °C
11,CCCCOc1ccc(S(=O)(=O)C2(C(=O)O)CCN(CCCC)CC2)cc1,182 °C
12,CC(C)(C)c1nc(C=Cc2cccnc2)nc(C(C)(C)C)c1O,150 to 151 °C
13,OCCc1ccc(N2CCOCC2)cc1,57 °C
14,C=CCOC(=O)C(C)(C)Cc1c(SC(C)(C)C)c2cc(O)ccc2n1Cc1ccc(Cl)cc1,150 to 151 °C
15,Cc1nc2ccc(O)cc2c(=O)n1C1CCC(=O)NC1=O (stereo not given),315 to 317 °C
16,COC(=O)c1cccc(CNC(=O)C2Cc3ccccc3N2S(=O)(=O)c2ccc(-c3cccc(C(F)(F)F)c3)cc2)c1 (stereo not given),50 °C
17,"Cc1cccc2c(=O)[nH]c(C3CCN(CCO)C3)cc12 (single isomer, unassigned; (-))",137 to 139 °C
18,CCOC1CC2(C)C(CCC3C4CCCC4(C)CC(N(C)C)C32)CC1O (stereo not given),54 to 59 °C
19,CC(=O)OC1CSC(Oc2ccc(-c3ccncc3)nc2)C(OC(C)=O)C1OC(C)=O (stereo not given),189 °C
20,CC(C)(C)O[C@H]1C[C@H]2CN(C3=Nc4cc(Cl)ccc4Sc4ccccc43)CCN2C1,132 to 134 °C
21,CCCCNCCCCCCCCSc1nc(-c2ccccc2)c(-c2ccccc2)[nH]1,75 to 78 °C
22,CCNC(=S)C1=CC(C)(C)Oc2ccc(C#N)cc21,151 to 153 °C
23,COc1cccc(CC(=O)c2c(O)c3cccnc3n(-c3ccccc3)c2=O)c1,173 to 174 °C
24,COc1ccc(CN(Cc2ccc(OC)cc2)S(=O)(=O)c2ccc(N(CCS(C)(=O)=O)Cc3ccc(C)cc3)cc2)cc1,85.7 to 86.6 °C
25,COC(=O)C1=CC(=O)C(C)(c2ccccc2)O1 (stereo not given),60 to 62 °C

row,SMILES,melting point
1,Cn1ncnc1COc1nc2c(cc1-c1ccsc1)nnn2-c1c(F)cccc1F,171 to 172 °C
2,O=C(N[C@H](Cc1ccc(C(F)(F)F)cc1)[C@@H](O)c1ccc(F)cc1)c1cccc2cccnc12 (racemic),83 to 84 °C
3,NS(=O)(=O)c1cc2cnc(CO)cc2o1,222 to 223 °C
4,O=C(O)C=CC(=O)c1ccc(Oc2ccccc2Cl)cc1,145 to 147 °C
5,CCCCN(CC)c1cc(C)nc(Sc2c(C)cc(C)cc2C)c1,110 to 112 °C
6,CCCCc1ncc(/C=C/C=C/C(=O)O)n1Cc1ccccc1Cl,219 to 220 °C
7,CCOC(=O)c1cc(-c2ccc(F)cc2)sc1N,98 to 99 °C
8,CC(C)(C)n1cc(-c2ccc(S(=O)c3ccccc3)cc2)c2c(N)ncnc21 (stereo not given),180 to 182 °C
9,CC(=NOCC=Cc1ccccc1)C(=O)O,89 to 91 °C
10,Cc1nc(Nc2ccccc2)sc1-c1ccnc(Nc2ccc(N3CCOCC3)cc2)n1,290 to 291 °C
11,COc1ccc(NC(=S)NC(=O)c2ccccc2)cc1COc1cc(Cl)cc(Cl)c1,167 to 169 °C
12,CN(Cc1ccccn1)C(=S)Nc1ccc(C#N)cc1,171 °C
13,Cn1nc(-c2cccc(Br)c2)cc1C(=O)O,166 to 169 °C
14,CC(C)(C)OC(=O)N1C2CCC1C(=O)C2 (stereo not given),60 to 62 °C
15,O=C1c2c(cc(O)c(Cl)c2Cl)CC1(c1ccccc1)C1CCCC1 (stereo not given),161 to 170 °C
16,c1ccc(Nc2nc(-c3cn[nH]c3)c(N3CCCCC3)s2)nc1,238 °C
17,CN1CCC(=O)C(C2c3ccccc3Sc3ccccc32)C1 (stereo not given),155 to 156 °C
18,Cc1nnc(-c2ccc3occ(-c4ccc(S(C)(=O)=O)c(C)c4)c3c2)o1,173 to 174 °C
19,O=C(O)/C=C\C(=O)N1CCc2cc(S(=O)(=O)N3CCN(c4cccc(Cl)c4)CC3)ccc21,191 to 192 °C
20,COc1c(F)cc(NN)cc1F,60.5 to 62.3 °C
21,Cc1nc(-c2c(Cl)cc(O)cc2Cl)oc1C,228 to 229 °C
22,Cc1nc(N)nc(N)c1C=CC(C)c1ccc(Cl)cc1 (stereo not given),158 to 165 °C
23,O=c1[nH]c2cc(Cl)ccc2c(O)c1-c1cccc([N+](=O)[O-])c1,329 to 332 °C
24,COc1ccc(SC2=C(C(=O)O)CCC2=CCCc2ccccc2)cc1OC,146 to 148 °C
25,COc1ncccc1-c1cc2cc(C(=O)NCCCN3CCOCC3)ccc2[nH]1,224 to 225 °C

row,SMILES,melting point
1,CNc1c(C#N)cnn1-c1ccc(Cl)c(Cl)c1Cl,163 to 165 °C
2,O=C(CCn1ccnc1)Cc1c(Cl)cccc1Cl,98.5 to 102 °C
3,Cc1c(F)c(F)c(F)c2c1c(=O)c(C(=O)O)cn2-c1cccs1,221 to 222 °C
4,C[C@H]1CCCC(C)(C)[C@@H]1[C@H](O)c1ccc(F)c(F)c1,43.3 to 45.8 °C
5,O=C(O)c1ccccc1C(=O)NCCN1CCN(CCOC(c2ccccc2)c2ccccc2)CC1,45 °C
6,CCN(CC)CCOc1ccc(Nc2ncc3c(=O)n(Cc4ccc(OC)cc4)c(=O)n(C(C)C)c3n2)cc1,139 to 141 °C
7,COC(=O)c1nc(Cl)c(F)c(NC(C)=O)c1Cl,183 to 186 °C
8,O=C(NCCC1CCCCC1)c1cc(-c2ccc(Cl)c(C(=O)O)n2)ccc1Cl,116 to 120 °C
9,O=C(O)COc1ccc2cc(-c3oc4ccccc4c3CCC3CCCC3)ccc2c1Br,155 to 156 °C
10,CCOC(=O)COCC1CCCN(C(=O)c2cnc(NC(=N)N)s2)C1 (racemic),156 °C
11,CC(c1ccc(-c2ccccc2)c(F)c1)c1csc(NC(=O)c2ccccc2)n1 (stereo not given),147 to 148 °C
12,CC(C)n1cc(-c2nc(C(N)=O)c(N)nc2-c2cccc(OC(F)(F)F)c2)ccc1=O,266 °C
13,CCc1nsc(NC(=O)C(C)c2ccc3oc(-c4c(Cl)cccc4Cl)nc3c2)c1Cl (stereo not given),180 to 183 °C
14,COc1ccc(Cl)cc1C(=O)NCCc1ccc(CCCCCCC(=O)O)cc1,36 °C
15,O=C(NCCO[N+](=O)[O-])c1csc(C(=O)NCCO[N+](=O)[O-])n1,136 to 138 °C
16,CN(NC(=O)c1ccccc1C(=O)O)c1nc2ccccc2o1,140 to 142 °C
17,Cn1c2ccccc2c2cc(CN3CCOCC3)sc21,102 to 106 °C
18,CNC(=O)c1cc(NCc2c(C)cccc2C)c2nc(C)[nH]c2c1,298 °C
19,COC(=O)c1ccc2nc(C)n(Cc3ccc(Cl)cc3OC)c2n1,166 to 168 °C
20,NC(=O)c1ccc(N2CCN(Cc3cn4cc(Cl)ccc4n3)CC2)c(Cl)c1,254 to 256 °C
21,Cc1ccc(C2COc3cc(O)ccc3C2c2ccc(OCCN3CCCCC3)cc2)cc1 (stereo not given),146 to 148 °C
22,COC(=O)[C@@H]1C[C@@H](OS(C)(=O)=O)CN1C(=O)C1(C)CC1,102 to 103 °C
23,CC(C)(C)OC(=O)N1CCC(c2ccc(COc3ccc(-n4cncn4)cc3)nc2)CC1,147 to 150 °C
24,O=CCCc1cnc(-c2ccccc2)s1,192 °C
25,Cc1nc(N)c(C#N)cc1-c1ccccc1,182 to 189 °C
